{
  "source": "patent US8183243B2",
  "about": "“Melanocortin receptor agonists” (LG Life Sciences Ltd., priority 2008, dated 2012)",
  "target": "T1, MC4R (Homo sapiens, UniProt P32245)",
  "T1 construct": "expressed in transfected cells; host or cells: HEK (Human Embryonic Kidney) permanent expression cell line HEK MC4R-Luc, co-expressing CRE-luciferase",
  "T1 sequence (P32245 whole entry, species assumed)": "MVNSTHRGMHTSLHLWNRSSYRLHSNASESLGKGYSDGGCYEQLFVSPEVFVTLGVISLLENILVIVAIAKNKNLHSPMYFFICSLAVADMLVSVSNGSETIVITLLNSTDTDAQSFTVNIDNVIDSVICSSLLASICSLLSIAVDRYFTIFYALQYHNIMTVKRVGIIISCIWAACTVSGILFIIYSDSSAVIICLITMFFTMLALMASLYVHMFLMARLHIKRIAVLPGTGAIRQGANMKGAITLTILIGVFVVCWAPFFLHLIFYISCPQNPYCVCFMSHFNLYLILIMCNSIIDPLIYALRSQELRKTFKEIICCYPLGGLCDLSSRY",
  "test": "MCR agonistic activity (luciferase assay / cAMP accumulation assay) on MC4R",
  "assay_type": "cell-based",
  "details": "HEK cell lines expressing MC4R, not said which",
  "method": "Physiological activity of the compounds of the present invention was assessed by measuring agonistic activity as well as binding activity for melanocortin receptors (MCR) according to methods A and B explained as follows.\nAs one of the methods to measure MCR agonistic activity of the compound according to the present invention, the expression level of a marker gene (for example, luciferase) which increases proportionally according to the increase of cAMP content in the cell, was measured.\nFirst, permanent expression HEK (Human Embryonic Kidney) cell lines (HEK MC1R-Luc, MC3R-Luc, MC4R-Luc or MC5R-Luc) expressing the MCR gene of each subtype together with luciferase gene (CRE-LUC) under the control of CRE (cAMP Response Element) were constructed. The above cell lines were incubated in an incubator with 6% CO2 atmosphere at 37° C. using selection medium, DMEM(Dulbecco's Modified Eagles Medium) containing 10% heat-inactivated fetal bovine serum (Gibco/BRL), 100 unit/ml, penicillin (Gibco/BRL), 100 unit/ml streptomycin (Gibco/BRL), and 200 μg/ml geneticin (G418) (Gibco/BRL). When the cell covered 70% of total surface of the culture dish with 100 mm diameter, the culture dish was rinsed one time with 10 ml Phosphate Buffered Saline(PBS) free of Ca^++ and Mg^++, and then 3 ml PBS solution containing 0.05% trypsin and 0.53 mM EDTA was added thereto. After the trypsin/EDTA solution was removed, the cell lines were incubated in an thermostatic incubator for 1 minute at 37° C., and resuspended in 10 ml selection medium and centrifuged for 5 minutes at 1500 rpm. The supernatant was discarded and the settled cells were resuspended in 5 ml selection medium free of Phenol Red. The resulting cell-suspension was plated onto each well of 96-well culture plates for Luminometer(Costar) with a concentration of 5×10^4 cell in 100 μl culture medium for each well and incubated in the incubator with 6% CO2 atmosphere at 37° C. for 18 hours. With MCR agonists (Example compounds) diluted stepwise using the above culture medium, the cells were treated under the condition of the final DMSO concentration not exceeding 1%, and incubated for 5 hours in the atmosphere of 6% CO2 at 37° C. Then, 50 μl Bright-Glo (Promega) was added to each well. After allowing the treated cells to be at room temperature for 15 minutes, luminescence was measured for each well by using luminometer (Victor). The level of luminescence induced by the stepwise-diluted agonist was converted to relative % value to those by the treatment of 10 nM NDP-MSH. The EC50 indicates the concentration of each agonist for inducing 50% of maximal luminescence by each agonist and this value was measured by a statistical software (Prizm).\nB. cAMP Accumulation Assay\nAs another method to measure MCR agonistic activity of the compound according to the present invention, an increase of cAMP amount in the cell was measured.\nFirst, permanent expression HEK (Human Embryonic Kidney) cell lines (HEK MC1R-Luc, MC3R-Luc, MC4R-Luc or MCSR-Luc) expressing the MCR gene of each subtype were plated onto each well of 24-well culture plates for Luminometer(Costar) with a concentration of 2×10^5 cell in 1 ml culture medium for each well, and then incubated in an incubator with 6% CO2 atmosphere at 37° C. for 24 hours. The medium was removed from each well followed by rinsing with 0.5 ml cold DMEM one time. With MCR agonists (Example compounds) diluted stepwise using 200 μl DMEM including 500 μM IBMX (isobutylmethylxanthine), the cells were treated under the condition of the final DMSO concentration not exceeding 1%, and incubated for 30 minutes in the atmosphere of 6% CO2 at 37° C. Then, the cAMP amount in each cell was measured using Amersham cAMP assay Kit (TRK432).\nMore specifically, 14.4 μl of 6M PCA (60%) was added to each well, and allowed to be in ice for 10 minutes, and 200 μl sample was taken from each well and transferred to microcentrifuge tube. […]",
  "key": {"[1]": {"details": "method A (CRE-luciferase) or B (cAMP accumulation), read-out: EC50 value, agonistic activity to MC4R (range per group of Examples)"}, "[2]": {"details": "specific activities of representative compounds, method A or B, read-out: EC50"}},
  "note": "Where two headings read alike, the source gives them in different places.",
  "data": [
    {"smiles": "CN1CCN(C(=O)[C@H]2C[C@H](N(C(=O)[C@@H]3CCCO3)[C@H]3CC[C@@H](C)CC3)CN2C(=O)[C@@H]2CN(C(C)(C)C)C[C@H]2c2ccc(Cl)cc2)CC1", "note": "(relative stereo) [Example 35, (2S)-N-{(3S,5R)-1-{[(3S,4R)-1-tert-butyl-4-(4-chlorophenyl)pyrrolidin-3-yl]carbonyl}-5-[(4-methylpiperazin-1-yl)carbonyl]pyrrolidin-3-yl}-N-(cis-4-methylcyclohexyl)tetrahydrofuran-2-carboxamide]", "values": [
      {"measurement": "EC50", "setting": "[1]", "result": "0.1 to 10", "unit": "nM"}
    ]},
    {"smiles": "CC(=O)N(C1CCC(C)(C)CC1)[C@H]1C[C@@H](C(=O)N2CCN(C)CC2)N(C(=O)[C@@H]2CN(C(C)(C)C)C[C@H]2c2ccc(Cl)cc2)C1", "note": "[Example 1, N-{(3S,5S)-1-{[(3S,4R)-1-tert-butyl-4-(4-chlorophenyl)pyrrolidin-3-yl]carbonyl}-5-[(4-methylpiperazin-1-yl)carbonyl]pyrrolidin-3-yl}-N-(4,4-dimethylcyclohexyl)acetamide]", "values": [
      {"measurement": "EC50", "setting": "[1]", "result": "0.1 to 10", "unit": "nM"},
      {"measurement": "EC50", "setting": "[2]", "result": 10, "unit": "nM"}
    ]},
    {"smiles": "CC(=O)N(C1CCC(C)(C)CC1)[C@H]1C[C@@H](C(=O)N2CCNCC2)N(C(=O)[C@@H]2CN(C(C)(C)C)C[C@H]2c2ccc(F)cc2F)C1", "note": "[Example 2, N-[(3S,5S)-1-{[(3S,4R)-1-tert-butyl-4-(2,4-difluorophenyl)pyrrolidin-3-yl]carbonyl}-5-(piperazin-1-ylcarbonyl)pyrrolidin-3-yl]-N-(4,4-dimethylcyclohexyl)acetamide]", "values": [
      {"measurement": "EC50", "setting": "[1]", "result": "0.1 to 10", "unit": "nM"},
      {"measurement": "EC50", "setting": "[2]", "result": 6, "unit": "nM"}
    ]},
    {"smiles": "CN1CCN(C(=O)[C@@H]2C[C@H](N(C(=O)[C@@H]3CCCO3)C3CCC(C)(C)CC3)CN2C(=O)[C@@H]2CN(C(C)(C)C)C[C@H]2c2ccc(Cl)cc2)CC1", "note": "[Example 3, (2S)-N-{(3S,5S)-1-{[(3S,4R)-1-tert-butyl-4-(4-chlorophenyl)pyrrolidin-3-yl]carbonyl}-5-[(4-methylpiperazin-1-yl)carbonyl]pyrrolidin-3-yl}-N-(4,4-dimethylcyclohexyl)tetrahydrofuran-2-carboxamide]", "values": [
      {"measurement": "EC50", "setting": "[1]", "result": "0.1 to 10", "unit": "nM"},
      {"measurement": "EC50", "setting": "[2]", "result": 3, "unit": "nM"}
    ]},
    {"smiles": "CN1CCN(C(=O)[C@@H]2C[C@H](N(C(=O)C(C)(C)CO)C3CCC(C)(C)CC3)CN2C(=O)[C@@H]2CN(C(C)(C)C)C[C@H]2c2ccc(Cl)cc2)CC1", "note": "[Example 4, N-{(3S,5S)-1-{[(3S,4R)-1-tert-butyl-4-(4-chlorophenyl)pyrrolidin-3-yl]carbonyl}-5-[(4-methylpiperazin-1-yl)carbonyl]pyrrolidine-3-yl}-N-(4,4-dimethylcyclohexyl)-3-hydroxy-2,2-dimethylpropanamide]", "values": [
      {"measurement": "EC50", "setting": "[1]", "result": "0.1 to 10", "unit": "nM"},
      {"measurement": "EC50", "setting": "[2]", "result": 0.2, "unit": "nM"}
    ]},
    {"smiles": "CC(=O)N(C1CCC(C)(C)CC1)[C@H]1C[C@@H](C(=O)N2CCN(C)CC2)N(C(=O)[C@@H]2CN(C(C)(C)C)C[C@H]2c2ccc(F)cc2F)C1", "note": "[Example 5, N-{(3S,5S)-1-{[(3S,4R)-1-tert-butyl-4-(2,4-difluorophenyl)pyrrolidin-3-yl]carbonyl}-5-[(4-methylpiperazin-1-yl)carbonyl]pyrrolidin-3-yl}-N-(4,4-dimethylcyclohexyl)acetamide]", "values": [
      {"measurement": "EC50", "setting": "[1]", "result": "10 to 100", "unit": "nM"}
    ]},
    {"smiles": "CCN1CCN(C(=O)[C@@H]2C[C@H](N(C(C)=O)C3CCC(C)(C)CC3)CN2C(=O)[C@@H]2CN(C(C)(C)C)C[C@H]2c2ccc(F)cc2F)CC1", "note": "[Example 6, N-{(3S,5S)-1-{[(3S,4R)-1-tert-butyl-4-(2,4-difluorophenyl)pyrrolidin-3-yl]carbonyl}-5-[(4-ethylpiperazin-1-yl)carbonyl]pyrrolidin-3-yl}-N-(4,4-dimethylcyclohexyl)acetamide]", "values": [
      {"measurement": "EC50", "setting": "[1]", "result": "10 to 100", "unit": "nM"}
    ]},
    {"smiles": "CC(=O)N(C1CCC(C)(C)CC1)[C@H]1C[C@@H](C(=O)N2CCN(C(C)C)CC2)N(C(=O)[C@@H]2CN(C(C)(C)C)C[C@H]2c2ccc(F)cc2F)C1", "note": "[Example 7, N-{(3S,5S)-1-{[(3S,4R)-1-tert-butyl-4-(2,4-difluorophenyl)pyrrolidin-3-yl]carbonyl}-5-[(4-isopropylpiperazin-1-yl)carbonyl]pyrrolidin-3-yl}-N-(4,4-dimethylcyclohexyl)acetamide]", "values": [
      {"measurement": "EC50", "setting": "[1]", "result": "10 to 100", "unit": "nM"}
    ]},
    {"smiles": "CCN1CCN(C(=O)[C@@H]2C[C@H](N(C(C)=O)C3CCC(C)(C)CC3)CN2C(=O)[C@@H]2CN(C(C)(C)C)C[C@H]2c2ccc(Cl)cc2)CC1", "note": "[Example 8, N-{(3S,5S)-1-{[(3S,4R)-1-tert-butyl-4-(4-chlorophenyl)pyrrolidin-3-yl]carbonyl}-5-[(4-ethylpiperazin-1-yl)carbonyl]pyrrolidin-3-yl}-N-(4,4-dimethylcyclohexyl)acetamide]", "values": [
      {"measurement": "EC50", "setting": "[1]", "result": "0.1 to 10", "unit": "nM"}
    ]},
    {"smiles": "CC(=O)N(C1CCC(C)(C)CC1)[C@H]1C[C@@H](C(=O)N2CCN(C(C)C)CC2)N(C(=O)[C@@H]2CN(C(C)(C)C)C[C@H]2c2ccc(Cl)cc2)C1", "note": "[Example 9, N-{(3S,5S)-1-{[(3S,4R)-1-tert-butyl-4-(4-chlorophenyl)pyrrolidin-3-yl]carbonyl}-5-[(4-isopropylpiperazin-1-yl)carbonyl]pyrrolidin-3-yl}-N-(4,4-dimethylcyclohexyl)acetamide]", "values": [
      {"measurement": "EC50", "setting": "[1]", "result": "0.1 to 10", "unit": "nM"}
    ]},
    {"smiles": "CN1CCN(C(=O)[C@@H]2C[C@H](N(C(=O)C(C)(C)C)C3CCC(C)(C)CC3)CN2C(=O)[C@@H]2CN(C(C)(C)C)C[C@H]2c2ccc(Cl)cc2)CC1", "note": "[Example 10, N-{(3S,5S)-1-{[(3S,4R)-1-tert-butyl-4-(4-chlorophenyl)pyrrolidin-3-yl]carbonyl}-5-[(4-methylpiperazin-1-yl)carbonyl]pyrrolidin-3-yl}-N-(4,4-dimethylcyclohexyl)-2,2-dimethylpropanamide]", "values": [
      {"measurement": "EC50", "setting": "[1]", "result": "0.1 to 10", "unit": "nM"}
    ]},
    {"smiles": "CN1CCN(C(=O)[C@@H]2C[C@H](N(C(=O)C(C)(C)C)C3CCC(C)(C)CC3)CN2C(=O)[C@@H]2CN(C(C)(C)C)C[C@H]2c2ccc(F)cc2F)CC1", "note": "[Example 11, N-{(3S,5S)-1-{[(3S,4R)-1-tert-butyl-4-(2,4-difluorophenyl)pyrrolidin-3-yl]carbonyl}-5-[(4-methylpiperazin-1-yl)carbonyl]pyrrolidin-3-yl}-N-(4,4-dimethylcyclohexyl)-2,2-dimethylpropanamide]", "values": [
      {"measurement": "EC50", "setting": "[1]", "result": "0.1 to 10", "unit": "nM"}
    ]},
    {"smiles": "CCN1CCN(C(=O)[C@@H]2C[C@H](N(C(=O)[C@@H]3CCCO3)C3CCC(C)(C)CC3)CN2C(=O)[C@@H]2CN(C(C)(C)C)C[C@H]2c2ccc(Cl)cc2)CC1", "note": "[Example 12, (2S)-N-{(3S,5S)-1-{[(3S,4R)-1-tert-butyl-4-(4-chlorophenyl)pyrrolidin-3-yl]carbonyl}-5-[(4-ethylpiperazin-1-yl)carbonyl]pyrrolidin-3-yl}-N-(4,4-dimethylcyclohexyl)tetrahydrofuran-2-carboxamide]", "values": [
      {"measurement": "EC50", "setting": "[1]", "result": "0.1 to 10", "unit": "nM"}
    ]},
    {"smiles": "CC(C)N1CCN(C(=O)[C@@H]2C[C@H](N(C(=O)[C@@H]3CCCO3)C3CCC(C)(C)CC3)CN2C(=O)[C@@H]2CN(C(C)(C)C)C[C@H]2c2ccc(Cl)cc2)CC1", "note": "[Example 13, (2S)-N-{(3S,5S)-1-{[(3S,4R)-1-tert-butyl-4-(4-chlorophenyl)pyrrolidin-3-yl]carbonyl}-5-[(4-isopropylpiperazin-1-yl)carbonyl]pyrrolidin-3-yl}-N-(4,4-dimethylcyclohexyl)tetrahydrofuran-2-carboxamide]", "values": [
      {"measurement": "EC50", "setting": "[1]", "result": "0.1 to 10", "unit": "nM"}
    ]},
    {"smiles": "CN1CCN(C(=O)[C@@H]2C[C@H](N(C(=O)[C@@H]3CCCO3)C3CCC(C)(C)CC3)CN2C(=O)[C@@H]2CN(C(C)(C)C)C[C@H]2c2ccc(F)cc2F)CC1", "note": "[Example 14, (2S)-N-{(3S,5S)-1-{[(3S,4R)-1-tert-butyl-4-(2,4-difluorophenyl)pyrrolidin-3-yl]carbonyl}-5-[(4-methylpiperazin-1-yl)carbonyl]pyrrolidin-3-yl}-N-(4,4-dimethylcyclohexyl)tetrahydrofuran-2-carboxamide]", "values": [
      {"measurement": "EC50", "setting": "[1]", "result": "0.1 to 10", "unit": "nM"}
    ]}
  ]
}
